# Laboratory results taken from US20250340902A1, “GENE THERAPY FOR BVES-RELATED DISORDERS” (OHIO STATE INNOVATION FOUNDATION, priority 2022, published 2025).
# What was measured:
# [1] = system: ADCY3/ADCY6 double KO HEK293 cells with stable expression of cAMPr; experiment: cAMPr reporter assay; format: cell-based, human; settings: 500 μM
# BVES-KO mice = experiment: Bortezomib treatment of BVES-KO mice; format: in vivo, mouse; settings: vs vehicle
# Description: Histology analysis and immunofluorescence staining. The skeletal muscles were embedded in optimal cutting temperature (OCT) compound, flash frozen using isopentane chilled in liquid nitrogen and kept at −80° C. until used. Cryosections were prepared using a cryostat Leica CM3054. For hematoxylin and eosin (H&E), transversely oriented sections (10 μm) were cut at mid-point, stained and imaged using a Nikon Ti-E inverted fluorescence microscope equipped with a Lumenera Infinity Color CCD camera and a Nikon Super Fluor 20×0.75 NA objective lens (Nikon Inc., Melville, NY) as previously described.
# For immunofluorescence staining, frozen tissue sections (10 μm) were fixed with 4% paraformaldehyde for 10 minutes at room temperature. After washing with PBS, the slides were blocked with 5% BSA/PBS for one hour. The slides were incubated with the indicated primary antibodies (Table 3) at 4° C. overnight. After extensive washing with PBS, the slides were incubated with the secondary antibodies (1:400) (Table 3) for one hour at room temperature. The slides were sealed with […] Antifade Mounting Medium with DAPI (Vector Laboratory, Burlingame, CA). The images were taken under a LSM780 microscope (Zeiss, Germany) and assembled to figures using Adobe Photoshop 21.0.2 (Adobe, San Jose, CA). Fiber size and CNF quantification were carried out using Myosight with manual calibration on the entire cross-sections of GA muscles.
# Bortezomib Treatment. Bortezomib was purchased from Selleck Chemicals (#S0130, Houston, TX). A stock solution (5 mg/ml) dissolved in the vehicle 2% DMSO, 30% PEG300 and ddH2O were aliquoted and stored at […]. An equal volume of Bortezomib (0.8 mg/kg diluted with the vehicle) or vehicle was I.P. injected once bi-weekly into BVES-KO mice (N=6 per treatment) at 12 weeks age, respectively. After two months of treatment, force measurement and exercise evaluation were performed. Mice were sacrificed after 3-month treatment. QU and GA muscles were processed for histopathology, immunofluorescence and Western blot analyses.
# Force measurement. The muscle contractility was measured using an in vivo muscle test system (Aurora Scientific Inc) as previously described. Briefly, mice were anesthetized with 2% (w/v) isoflurane and anesthesia was maintained by 2% isoflurane (w/v) during muscle contractility measurement. Maximum plantarflexion tetanic torque was measured during a train of supramaximal electric stimulations of the tibial nerve (pulse frequency 150 Hz, pulse duration 0.2 ms) using the DMA v5.501 (Aurora Scientific Inc).
# Exercise and exhaustion assay. Time and distance to exhaustion was performed as previously described. Briefly, prior to training, the randomized mice were firstly acclimated to the treadmill (LE8710MTS, Harvard Apparatus) for two consecutive days at slow speed (10 cm/s) for 5 min. On the third day, mice were placed on an uphill) (15° treadmill with an initial speed of 10 cm/s, increased every 4 min by 5 cm/s. Mice were considered to be exhausted when the animal's hindlimbs remained on the electric grid for more than 10 s. Time and distance were automatically collected via the software SeDaCOM (Harvard Apparatus).
# [2] = system: WT and BVES-KO skeletal muscles; experiment: Autophagic flux assay (colchicine), LC3B Western blot in GA muscles; format: in vivo, mouse; settings: 0.4 mg/kg I.P. daily 7 days
# Description: Autophagic flux assay. A stock solution of colchicine (4 mg/ml in sterile ddH2O, C9754, Sigma-Aldrich) was prepared and stored at −20° C. until the day of treatment. Immediately prior to administration, the colchicine stock solution was diluted to 0.1 mg/mL in sterile ddH2O water. An equal volume of colchicine (0.4 mg/kg) or vehicle was administered to mice (6 weeks old) daily via I.P. injection for 7 days. Muscle tissues were harvested from treated mice on the day after the final treatment.
# Western blot. The cells and tissues were homogenized/lysed with cold RIPA buffer supplemented with protease inhibitors, and the extracted proteins were quantified by DC™ Protein Assay Reagent (Bio-Rad, Hercules, CA). The membrane extraction was performed using the Membrane Protein Extraction Kit (ab65400, Abcam, Waltham, MA) according to the manufacturer's instruction. The extracted protein samples were separated by stain-free SDS-PAGE gels (Bio-Rad, 4-15%) and transferred onto Nitrocellulose Membranes (0.45 μm). The membrane was incubated with the primary antibodies (Table 3) at 4° C. overnight. Secondary HRP-conjugated goat anti-mouse (1:4000) and goat anti-rabbit (1:4000) antibodies were obtained from Cell Signaling Technology (Danvers, MA). […] Western blots were quantified using Image Lab 6.0.1 software (Bio-Rad Laboratories, Hercules, CA) according to the manufacturer's instruction.
smiles,measurement,setting,value
"CC(C)Cn1c(=O)n(C)c(=O)c2[nH]cnc21 [IBMX, 3-isobutyl-1-methylxanthine]",cAMP (cAMPr fluorescence) change,[1]; ADCY9-transfected cells,gradual increase
same,cAMP (cAMPr fluorescence) change,[1]; cells co-transfected with BVES and ADCY9,substantially reduced cAMP elevation
CC(C)C[C@H](NC(=O)[C@H](Cc1ccccc1)NC(=O)c1cnccn1)B(O)O [bortezomib],body weight,"BVES-KO mice; 0.8 mg/kg I.P. once bi-weekly, 2 months",significantly increased
same,"fiber size (CSA, GA)","BVES-KO mice; 0.8 mg/kg I.P., 2 months",significantly increased
same,muscle contractility (tetanic torque),"BVES-KO mice; 0.8 mg/kg I.P., 2 months",enhanced
same,"physical performance on treadmill running (time to exhaustion, total running distance)","BVES-KO mice; 0.8 mg/kg I.P., 2 months",improved
same,mass of quadriceps and gastrocnemius muscles (normalized to body weight),BVES-KO mice; 0.8 mg/kg I.P.,significantly increased
same,"muscle pathology (H&E staining, GA)",BVES-KO mice; 0.8 mg/kg I.P.,remarkably improved
same,percentage of CNFs (GA),BVES-KO mice; 0.8 mg/kg I.P.,reduced
COc1cc2c(c(OC)c1OC)-c1ccc(OC)c(=O)cc1[C@@H](NC(C)=O)CC2 [colchicine],LC3B (Western blot),[2],significant increase
